These results are taken from publication PMC9334274, “A unique class of Zn^2+-binding serine-based PBPs underlies cephalosporin resistance and sporogenesis in Clostridioides difficile” (Nature Communications, 2022).

One experiment addresses PBP2WT (Clostridioides difficile, UniProt A0A9R0CDX1). In words: biochemical. The format is binding.
The target of another experiment is T1, PBP2D515N (Clostridioides difficile, UniProt A0A9R0CDX1, D515N).
T1 sequence (A0A9R0CDX1 36-962 D515N): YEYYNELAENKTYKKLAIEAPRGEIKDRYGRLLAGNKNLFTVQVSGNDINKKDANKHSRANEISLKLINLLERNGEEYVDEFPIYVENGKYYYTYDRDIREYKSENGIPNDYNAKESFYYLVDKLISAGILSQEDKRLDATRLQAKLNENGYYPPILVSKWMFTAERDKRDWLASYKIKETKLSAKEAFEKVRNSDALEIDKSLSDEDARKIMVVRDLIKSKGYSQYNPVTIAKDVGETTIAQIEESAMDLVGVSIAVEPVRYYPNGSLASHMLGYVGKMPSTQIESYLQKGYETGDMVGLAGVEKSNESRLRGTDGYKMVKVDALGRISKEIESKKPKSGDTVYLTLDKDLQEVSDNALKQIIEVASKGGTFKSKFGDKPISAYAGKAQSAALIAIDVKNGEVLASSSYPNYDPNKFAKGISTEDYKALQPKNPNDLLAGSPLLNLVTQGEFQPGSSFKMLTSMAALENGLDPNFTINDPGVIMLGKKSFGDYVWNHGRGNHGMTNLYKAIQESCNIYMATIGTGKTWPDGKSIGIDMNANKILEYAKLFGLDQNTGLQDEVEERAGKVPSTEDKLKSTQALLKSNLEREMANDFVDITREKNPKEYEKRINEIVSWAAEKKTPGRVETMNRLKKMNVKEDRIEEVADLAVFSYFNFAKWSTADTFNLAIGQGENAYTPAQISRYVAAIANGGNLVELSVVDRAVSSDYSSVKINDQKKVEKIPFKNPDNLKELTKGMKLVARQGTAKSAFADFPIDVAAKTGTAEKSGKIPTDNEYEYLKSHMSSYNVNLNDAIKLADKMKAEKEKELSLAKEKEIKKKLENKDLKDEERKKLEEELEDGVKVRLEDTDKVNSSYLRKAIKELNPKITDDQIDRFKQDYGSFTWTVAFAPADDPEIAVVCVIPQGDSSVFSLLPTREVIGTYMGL
Description: biochemical. The format is binding.

Another experiment concerns PBP2. The conditions noted are these: 2 mM EDTA.
For the next experiment, the system named is C. difficile. Also noted: method as in PMID 29533126. The following applies: cited from earlier work.

As usually defined, the Kd is the free concentration of one partner at which half of the binding sites on the other are occupied at equilibrium, for simple one-to-one binding. A high value points to lower affinity. As to `Cc1cc(C)n2c1C=C1C=CC(CCC(=O)Nc3ccc(OCC(=O)N[C@@H]4C(=O)N5[C@@H]4SC(C)(C)[C@@H]5C(=O)O)cc3)=[N+]1[B-]2(F)F` [bocillin], the Kd on PBP2WT was determined as 2.95 ± 0.72 µM; on PBP2D515N, 16.7 ± 2.72 µM. With `O=C(O)CN(CCN(CC(=O)O)CC(=O)O)CC(=O)O` [EDTA], in the experiment with PBP2, the PBP2 activity result is listed as “not affected”.

B1: calprotectin: a protein secreted by the immune system in response to intestinal inflammation; chelator of divalent cations such as Ca2+ and Zn2+ (protein, UniProt P05109 1-93; P06702 1-114, looked up)
Protein S100-A8: MLTELEKALNSIIDVYHKYSLIKGNFHAVYRDDLKKLLETECPQYIRKKGADVWFKELDINTDGAVNFQEFLILVIKMGVAAHKKSHEESHKE
Protein S100-A9: MTCKMSQLERNIETIINTFHQYSVKLGHPDTLNQGEFKELVRKDLQNFLKKENKNEKVIEHIMEDLDTNADKQLSFEEFIMLMARLTWASHEKMHEGDEGPGHHHKPGLGEGTP
Turning to B1, in the experiment on C. difficile, the “C. difficile growth (in words)” value is “inhibits C. difficile growth”.
